Experimental data from patent US20080200422A1, “Methods for reduction of adipose tissue mass” (priority 2007, published 2008).
Entries after “also recorded” stand apart in the source; their conditions may differ.

Tests used:
liver FAS expression = settings: 24 hrs after a single IP injection (30 mg/kg body weight); cited from earlier work
[1] = tested on: leucine-deprived GCN2−/− mice; test: C75 treatment of leucine-deprived GCN2−/− mice (liver steatosis, liver gene expression); assay type: in vivo; settings: 20 mg/kg IP, three doses over seven days
Experimental: FIG. 5. Leucine deprivation induced-liver steatosis in GCN2^−/− mice is prevented by inhibition of FAS expression. GCN2 KO (−/−) mice were fed a leucine-deprived diets for seven days and were given C75 at a dose of 20 mg/Kg body weight in 200 μl RPMI or only RPMI every other day by IP injection during this period. A. Liver histology for GCN2 KO mice. Sections from animals were stained with oil red O, magnification 40×. Lipid deposits are detected as red-stained areas. B and C. Expression of FAS mRNA (B) and FAS protein (C, top: western blot; bottom: FAS protein relative to tubulin and normalized to control diet group within same strains of mice). *Effect of with C75 treatment fed on (−) leu diet versus without C75 treatment fed on (−) leu diet or control diet in GCN2 KO mice (two-tailed student t-test; p<0.0001.). [KO: control diet (n=6); (−) leu diet (n=5); (−) leu diet+C75 (n=3)]. D and E. Expression of PPARα and ACO mRNA. *Effect of with C75 treatment versus without C75 treatment on either (−) leu diet (*a: p<0.001) or control diet group (*b: p<0.001) in GCN2 KO mice (two-tailed student t-test; p<0.0001.). [KO: control diet (n=6); (−) leu diet (n=5); (−) leu diet+C75 (n=3)].
Wild-type C57BL/6J (GCN2^+/+) mice were obtained from Jackson Laboratories (Bar Harbor, Me.). […] Food intake and body weight were recorded daily. […] Body, liver and adipose tissue weight were recorded at the time of sacrifice. […]
Total RNA was prepared from frozen liver using an RNase mini kit (Qiagen). Quantitative RT-PCR was performed using co-amplification of GAPDH as an internal control. 1 μg of RNA was reverse transcribed with random primers (Promega) and then quantitative PCR was performed with the qPCR core kit for sybergreen I (Eurogentec) by 7000 sequence detection system (Applied Biosystems). […] At a specific threshold in the linear amplification stage, the cycle differences between amplified GAPDH and cDNA of interest were used to determine the relative quantity of genes of interest. […]

GCN2−/− mice = test: PPARα agonist WY compound in leucine-deprived GCN2−/− mice (fatty liver); assay type: in vivo

Row | SMILES | liver FAS expression (liver FAS expression) | FAS mRNA and protein levels in liver [1] | levels of PPARα and ACO mRNA in liver [1] | liver steatosis [1] | development of fatty liver (GCN2−/− mice)
1 | C=C1C(=O)OC(CCCCCCCC)C1C(=O)O (centres unmarked) [C75] | inhibit FAS expression significantly; also recorded: significant reductions | repressed | reduced | prevented | 
2 | Cc1cccc(Nc2cc(Cl)nc(SCC(=O)O)n2)c1C [WY compound] |  |  |  |  | not able to prevent
